In patent US11548875B2, “Inhibitor compounds for male contraception” (University of Washington, priority 2018, dated 2023):

target: T1, ALDH1A1 (Homo sapiens, UniProt P00352); assay: Inhibitor screening using purified enzymes: ALDH1A1 activity, retinoic acid production by HPLC; assay type: biochemical; details: purified enzyme
T1 sequence (P00352 1-501): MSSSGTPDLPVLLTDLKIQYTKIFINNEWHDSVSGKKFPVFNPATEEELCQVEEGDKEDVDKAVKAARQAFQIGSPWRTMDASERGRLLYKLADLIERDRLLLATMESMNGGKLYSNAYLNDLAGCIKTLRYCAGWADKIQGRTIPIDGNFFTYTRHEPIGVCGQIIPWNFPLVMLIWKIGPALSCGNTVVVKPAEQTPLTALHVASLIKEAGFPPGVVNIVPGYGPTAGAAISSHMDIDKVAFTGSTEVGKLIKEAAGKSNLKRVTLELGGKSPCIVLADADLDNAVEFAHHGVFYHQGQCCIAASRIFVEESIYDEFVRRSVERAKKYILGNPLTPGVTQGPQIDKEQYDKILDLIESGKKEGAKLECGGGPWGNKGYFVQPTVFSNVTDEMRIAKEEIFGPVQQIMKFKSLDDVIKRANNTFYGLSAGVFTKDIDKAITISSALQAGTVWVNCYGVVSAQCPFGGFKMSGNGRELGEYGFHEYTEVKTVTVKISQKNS
Source text: ALDHs were cloned into bacterial expression vector for in vitro enzyme assays and into mammalian expression vectors for cell-based enzyme assays. Human ALDH1A1 cDNA and human ALDH2 cDNA were purchased from OriGene (SC321535) and Open Biosystems (MHS4771-99611182), respectively. and human ALDH1A2 cDNA was cloned from human testis RNA using RT-PCR (Population Division of the Department of Economic and Social Affairs of the United Nations Secretariat. World Population prospects: the 2008 revision. Available at http://www.un.org/esa/population/ (Retrieved Sep. 30, 2011)). For bacterial expression, an open reading frame of ALDH1A1 and ALDH2 were subcloned into the pETite vector (Lucigen) with a 5′ histidine-tag and that of ALDH1A2 into a pET28 vector (Novagen) with a 3′ histidine-tag. Correct frame and sequences were verified through DNA sequencing (UW DNA sequencing facility). ALDHs were induced with 1 mM IPTG and purified using His.Bind resin (Novagen, San Diego, Calif.) and stored in a buffer containing 20 mM Hepes (pH 8), 150 mM KCl and 1 mM EDTA as previously described (Fierce, Y., de Morais Vieira, M., Piantedosi, R., Wyss, A., Blaner, W. S., and Paik, J. (2008) In vitro and in vivo characterization of retinoid synthesis from beta-carotene. Archives of biochemistry and biophysics 472, 126-138).
ALDH1A1 and ALDH1A2 activity was determined as previously reported (Beedle M T, Stevison F, Zhong G, Topping T, Hogarth C, Isoherranen N, Griswold M D. Sources of All-Trans Retinal Oxidation Independent of the Aldehyde Dehydrogenase 1A Isozymes Exist in the Postnatal Testis. Biol Reprod. 2018 Sep. 21. doi: 10.1093/biolre/ioy200). Briefly, purified enzymes were incubated in a buffer containing 10 mM HEPES buffer (pH 8.0), 150 mM potassium chloride and 2 mM EDTA with 2 mM NAD. Retinoic acid production was determined using HPLC as previously reported (Amory J K, Muller C H, Shimshoni A J, Isoherranen N, Paik J, Moreb J S, Amory D W, Evanoff R, Goldstein A S, Griswold M D. Suppression of spermatogenesis by bisdichloroacetyldiamines is mediated by inhibition of testicular retinoic acid biosynthesis. Journal of Andrology 2011; 32(1):111-119). Inhibitors were diluted in DMSO and added to the reactions. […] For initial screening of inhibitors for ALDH1A2, 1 μg ALDH1A2, 5 μM all-trans-retinal and 5 μM inhibitors were incubated for 15 min at 37° C. […] For this purpose, 0.5 μg ALDH1A2 and […] were incubated for 5 minutes at 37° C. with varying concentrations of inhibitors. To determine specificity toward ALDH1A2, the IC50 for […]

Compound | IC50 [µM]
Cn1cccc1C(=O)N1CCN(c2ccc(NC(=O)CCl)c(N3CCCC3)c2)CC1 [Compound 372, 1-[4-(4-N-Chloroacetyl-3-(pyrrolidin-1-yl)phenyl]piperazin-1-yl](1-methyl-1H-pyrrol-2-yl)methanone] | 0.3
O=C(c1ccc[nH]1)N1CCN(c2ccc([N+](=O)[O-])c(N3CCCC3)c2)CC1 [Compound 344, {4-[4-Nitro-3-(pyrrolidin-1-yl)phenyl]piperazin-1-yl}(1H-pyrrol-2-yl)methanone] | 0.453
O=C(c1cccc(Cl)c1)N1CCN(c2ccc([N+](=O)[O-])c(N3CCCC3)c2)CC1 [Compound 341, 3-Chlorophenyl-1-{4-[4-nitro-3-(pyrrolidin-1-yl)phenyl]piperazin-1-yl}methanone] | 1.65
3-{4-[(Chloroacetyl)amino]phenyl}-N-(3-fluorophenyl)-1-phenyl-1H-pyrazole-4-carboxamide [Compound 294] | 0.003
CC(=O)n1cccc1C(=O)N1CCN(c2ccc([N+](=O)[O-])c(N3CCCC3)c2)CC1 [Compound 347, {4-[4-Nitro-3-(pyrrolidin-1-yl)phenyl]piperazin-1-yl}(1-acetyl-pyrrol-2yl)methanone] | 1.07
Cn1cccc1C(=O)N1CCN(c2ccc(NC(=O)C(Cl)Cl)c(N3CCCC3)c2)CC1 [Compound 367, 1-[4-(4-N-Dichloroacetyl-3-(pyrrolidin-1-yl)phenyl]piperazin-1-yl](1-methyl-1H-pyrrol-2-yl)methanone] | 0.23
Cn1cccc1C(=O)N1CCN(c2ccc(-c3ccc([N+](=O)[O-])cc3)c(N3CCCCC3)c2)CC1 [Compound 373] | 1.44
N#Cc1ccc(-n2cc(C(=O)Nc3cccc(F)c3)c(-c3ccc(NC(=O)C(Cl)Cl)cc3)n2)cc1 [Compound 316a, 3-(4-Dichloroacetamidophenyll)-N-(3-fluorophenyl)-1-(4-cyanophenyl)-1H-pyrazole-4-carboxamide] | 0.249
3-(4-Acryloylphenyl)-1-phenyl-1H-pyrazole-4-carbaldehyde [Compound 309] | 0.005
O=C(c1ccccc1)N1CCN(c2ccc([N+](=O)[O-])c(N3CCCC3)c2)CC1 [Compound 339, Phenyl-1-{4-[4-nitro-3-(pyrrolidin-1-yl)phenyl]piperazin-1-yl}methanone] | 0.675
